In PubChem BioAssay (NCI):
Values joined by “and” are separate entries in the source; they are usually repeats but may differ in a detail not shown here. Equal entries are not always repeated.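 Cultured in 96-well plates, cells were exposed to test compound for 48 hours across five concentrations. GI50 = concentration required for 50% inhibition of growth. TGI: concentration producing complete growth inhibition.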

Legend:
Assay in all cases: NCI tumour cell line growth inhibition, 48 h
UACC-257 melanoma = system: UACC-257 melanoma
ACHN renal = system: ACHN renal
SNB-75 CNS = system: SNB-75 CNS
PC-3 prostate = system: PC-3 prostate
MDA-MB-435 = system: MDA-MB-435
SN12C renal = system: SN12C renal
P388/ADR leukemia = system: P388/ADR leukemia
P388 leukemia = system: P388 leukemia
K-562 leukemia = system: K-562 leukemia
HOP-18 NSCLC = system: HOP-18 NSCLC

`O=C(CCN1CCCC1)Nc1ccc2c(NCCCCc3ccccc3)c3ccccc3nc2c1` gave a GI50 (UACC-257 melanoma) of 1.8 µM, a TGI (UACC-257 melanoma) of 3.5 µM and a GI50 (ACHN renal) of 1.32 µM. It also gave a TGI (ACHN renal) of 2.59 µM, a GI50 (SNB-75 CNS) of 1.33 µM and a TGI (SNB-75 CNS) of 2.65 µM. The GI50 (PC-3 prostate) was 0.723 µM, the TGI (PC-3 prostate) was 2.09 µM and the GI50 (MDA-MB-435) was 1.56 µM. It also gave a TGI (MDA-MB-435) of 2.95 µM, a GI50 (SN12C renal) of 1.08 µM and a TGI (SN12C renal) of 2.39 µM.
Work on `Cc1c2cc[n+](C)cc2c(C)c2c1[nH]c1ccc(O)cc12` yielded a TGI (UACC-257 melanoma) greater than 90.6 µM, a TGI (P388/ADR leukemia) greater than 77.4 µM and a TGI (P388 leukemia) of 38.7 µM. The TGI (K-562 leukemia) was greater than 82.1 µM, the TGI (SNB-75 CNS) was 25.7 µM and the TGI (PC-3 prostate) was greater than 100 µM. The TGI (MDA-MB-435) was greater than 100 µM, the TGI (HOP-18 NSCLC) was greater than 94.5 µM and the TGI (SN12C renal) was 15.5 µM.
In the case of `CC(=O)O[C@H]1C(=O)[C@]2(C)[C@@H](OC(=O)OCC(O)CO)C[C@H]3OC[C@@]3(OC(C)=O)[C@H]2[C@H](OC(=O)c2ccccc2)[C@]2(O)C[C@H](OC(=O)[C@H](O)[C@@H](NC(=O)c3ccccc3)c3ccccc3)C(C)=C1C2(C)C` (some centres undefined), the TGI (UACC-257 melanoma) is reported as 22.2 µM, the TGI (K-562 leukemia) is reported as greater than 100 µM and the TGI (ACHN renal) is reported as greater than 100 µM. It also gave a TGI (SNB-75 CNS) of less than 0.01 µM, a TGI (PC-3 prostate) greater than 70.8 µM and a TGI (SN12C renal) greater than 100 µM.
`O=c1c(-c2ccccc2)c[nH]c2cc([N+](=O)[O-])c(/C(Cl)=C/c3ccccc3)cc12` showed a TGI (UACC-257 melanoma) of 97.3 µM, a TGI (P388/ADR leukemia) greater than 45.3 µM and a TGI (P388 leukemia) greater than 31.6 µM. For the same molecule, the TGI (K-562 leukemia) was 20.7 µM, the TGI (SNB-75 CNS) was 24.1 µM and the TGI (HOP-18 NSCLC) was 23.1 µM. For the same molecule, the TGI (SN12C renal) was 43.7 µM.
`COc1cc2c(cc1-c1c(C)noc1C)ncc1nc(C3CCCCC3)n(C3CCC(OC(F)F)CC3)c12` (centres undefined) was tested, and the GI50 (K-562 leukemia) was 1.75 µM, the TGI (K-562 leukemia) was greater than 100 µM and the GI50 (SNB-75 CNS) was 0.511 µM. The TGI (SNB-75 CNS) was greater than 100 µM, the GI50 (MDA-MB-435) was 2.14 µM and the TGI (MDA-MB-435) was greater than 100 µM.
Molecule `CCP(=O)(CC)C(Cl)(Cl)C(=O)NC` has a TGI (UACC-257 melanoma) greater than 100 µM, a TGI (K-562 leukemia) greater than 100 µM and a TGI (ACHN renal) greater than 100 µM. It also gave a TGI (SNB-75 CNS) greater than 100 µM, a TGI (PC-3 prostate) greater than 100 µM and a TGI (MDA-MB-435) greater than 100 µM. The TGI (SN12C renal) was greater than 100 µM.
For `Cc1c2cc[n+](C)cc2c(COC2OC(CO)C(O)C2O)c2c3ccccc3n(C)c12` (centres undefined), the TGI (UACC-257 melanoma) was greater than 100 µM, the TGI (P388/ADR leukemia) was greater than 100 µM and the TGI (P388 leukemia) was greater than 100 µM. The TGI (K-562 leukemia) was greater than 100 µM, the TGI (SNB-75 CNS) was 92.4 µM and the TGI (HOP-18 NSCLC) was greater than 100 µM. It also gave a TGI (SN12C renal) of 89.1 µM.
`CC(C)(C)CC(C)(C)Cc1ccc(OCCOCC[N+](C)(C)Cc2ccccc2)cc1` showed a GI50 (UACC-257 melanoma) of 1.51 µM, a TGI (UACC-257 melanoma) of 3.18 µM and a GI50 (K-562 leukemia) of 0.966 µM. The TGI (K-562 leukemia) was 3.57 µM, the GI50 (ACHN renal) was 11.8 µM and the TGI (ACHN renal) was 27 µM. For the same molecule, the GI50 (SNB-75 CNS) was 1.63 µM, the TGI (SNB-75 CNS) was 3.47 µM and the GI50 (MDA-MB-435) was 1.33 µM. It also gave a TGI (MDA-MB-435) of 2.66 µM, a GI50 (SN12C renal) of 1.57 µM and a TGI (SN12C renal) of 3.04 µM.
In the case of `CC(=O)OC1CC2(O)C(CCC3(C)C(c4ccc(=O)oc4)CCC32O)C2(C)CCC(O)C=C12` (centres undefined), the GI50 (UACC-257 melanoma) is reported as 0.0375 µM, the TGI (UACC-257 melanoma) is reported as 0.105 µM and 0.823 µM and the GI50 (P388/ADR leukemia) is reported as 69.5 µM. For the same molecule, the TGI (P388/ADR leukemia) was 261 µM, the GI50 (P388 leukemia) was 63.8 µM and the TGI (P388 leukemia) was 245 µM. For the same molecule, the GI50 (K-562 leukemia) was 0.0128 µM, the TGI (K-562 leukemia) was 0.256 µM and 0.178 µM and the GI50 (SNB-75 CNS) was 0.0375 µM. The TGI (SNB-75 CNS) was 0.188 µM and 0.116 µM, the GI50 (HOP-18 NSCLC) was 0.0375 µM and the TGI (HOP-18 NSCLC) was 0.075 µM and 0.436 µM. It also gave a GI50 (SN12C renal) of 0.0375 µM.
